Measured values as given in patent publication US20090192176A1, “1H-PYRAZOLO[3,4-D]PYRIMIDINE, PURINE, 7H-PURIN-8(9H)-ONE, 3H-[1,2,3]TRIAZOLO[4,5-D]PYRIMIDINE, AND THIENO[3,2-D]PYRIMIDINE COMPOUNDS, THEIR USE AS mTOR KINASE AND PI3 KINASE INHIBITORS, AND THEIR SYNTHESES” (Wyeth, priority 2008, published 2009).

Experiments:
Format in all cases: biochemical
PI3 Kinase γ = PI3 Kinase γ (Homo sapiens, UniProt P48736); assay: Fluorescence polarization assay for PI3K
Procedure: (§1) Fluorescence Polarization Assay for PI3K
(§2) This assay is used to determine the IC50 of compounds of the present invention as it identifies inhibitors of PI3 kinase by measuring inhibition.
(§3) Reaction Buffer: 20 mM HEPES, pH 7.5, 2 mM MgCl2, 0.05% CHAPS; and 0.01% BME (added fresh) Stop/Detection Buffer: 100 mM HEPES, pH 7.5, 4 mM EDTA, 0.05% CHAPS; ATP 20 mM in water; PIP2 (diC8, cat# P-4508) 1 mM in water (MW=856.5); GST-GRP 1.75 mg/mL or 1.4 mg/mL in 10% glycerol; Red detector (TAMRA) 2.5 μM; Plate: Nunc 384 well black polypropylene fluorescence plate.
(§4) The assay is run by placing 5 μL of diluted enzyme per well, then 5 μL of diluted compound (or 9.5 μL enzyme then 0.5 μL compound in DMSO) is added and mixed. Then, 10 μL substrate is added to start the reaction. The samples are incubated 30-60 minutes, then the reaction is stopped by adding 20 μL stop/detector mix. PI3K is diluted with reaction buffer (e.g., 5 μL or 7.5 μL PI3K into 620 μL reaction buffer), and 5 μL of diluted enzyme is used per well. 5 μL reaction buffer or drug diluted in buffer (e.g., 4 μL/100 so final DMSO is 1% in reaction) is added to each. Pipetting up and down mixes the samples. Alternatively, the enzyme can be diluted to 1215 μL. In this case 9.8 μL is added per well and 0.2 μL compound is added in DMSO. To prepare 1 mL of substrate solution, 955 μL reaction buffer, 40 μL PIP2, and 2.5 μL ATP are mixed. 10 μL of substrate is added to each well to start the reaction.
(§5) Stop/detector mix is prepared by mixing 4 μL Red detector and 1.6 μL or 2.0 μL GST-GRP with 1 mL Stop buffer, which results in 10 nM probe and 70 nM GST-GRP). 20 μL of the stop/detector mix is added to each well to stop the reaction. The plates are read after 30-90 minutes keeping the red probe solutions dark. For the zero time point, stop/detector mix is added to the enzyme just before adding substrate. For an extra control, stop/detector mix is added to buffer (no enzyme) and substrate or to just buffer (no substrate). […] The recommended reaction has 0.06 μL per 20 μL (0.015 μg/20 μL) or 0.01125 μg/15 μL or 0.75 μg/mL. Plates are read on machines with filters for Tamra. The units are mP with no enzyme controls reading app 190-220 mP units. Fully active enzyme reduces fluorescence polarization down to 70-100 mP after 30 minutes. An active compound raises the mP values halfway to control or to 120-150 mP units.

PI3 Kinase α = PI3 Kinase α (Homo sapiens, UniProt P42336); assay: Fluorescence polarization assay for PI3K
Chain of PI3 Kinase α (P42336 whole entry): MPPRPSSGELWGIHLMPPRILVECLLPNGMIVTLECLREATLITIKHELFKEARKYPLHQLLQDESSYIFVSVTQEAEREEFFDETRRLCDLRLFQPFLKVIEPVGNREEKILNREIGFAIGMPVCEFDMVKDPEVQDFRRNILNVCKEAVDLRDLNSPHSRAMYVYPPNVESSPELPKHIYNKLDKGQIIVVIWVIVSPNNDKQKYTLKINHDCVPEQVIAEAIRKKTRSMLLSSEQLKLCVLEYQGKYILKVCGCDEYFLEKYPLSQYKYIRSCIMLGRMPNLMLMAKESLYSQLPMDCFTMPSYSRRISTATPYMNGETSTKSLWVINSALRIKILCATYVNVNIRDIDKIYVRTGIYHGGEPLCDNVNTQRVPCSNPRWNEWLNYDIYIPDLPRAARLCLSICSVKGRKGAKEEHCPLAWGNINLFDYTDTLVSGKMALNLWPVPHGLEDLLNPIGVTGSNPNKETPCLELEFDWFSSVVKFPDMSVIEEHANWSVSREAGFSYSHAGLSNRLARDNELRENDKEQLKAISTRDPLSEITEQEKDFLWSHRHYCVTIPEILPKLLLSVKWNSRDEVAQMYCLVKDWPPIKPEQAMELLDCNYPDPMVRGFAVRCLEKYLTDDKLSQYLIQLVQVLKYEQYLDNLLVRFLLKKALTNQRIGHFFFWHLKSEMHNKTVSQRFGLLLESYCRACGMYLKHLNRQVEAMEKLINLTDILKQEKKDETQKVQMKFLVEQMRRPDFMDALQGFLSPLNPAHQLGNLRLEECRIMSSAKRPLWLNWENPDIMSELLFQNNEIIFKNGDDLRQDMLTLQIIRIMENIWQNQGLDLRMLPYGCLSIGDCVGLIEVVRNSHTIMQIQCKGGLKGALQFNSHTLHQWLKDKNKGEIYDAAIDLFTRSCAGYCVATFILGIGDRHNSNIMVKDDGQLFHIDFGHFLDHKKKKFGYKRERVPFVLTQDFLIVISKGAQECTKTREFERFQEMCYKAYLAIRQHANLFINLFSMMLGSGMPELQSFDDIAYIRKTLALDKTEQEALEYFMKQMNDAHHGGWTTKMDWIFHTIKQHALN
Chain of PI3 Kinase α (P27986 whole entry partner): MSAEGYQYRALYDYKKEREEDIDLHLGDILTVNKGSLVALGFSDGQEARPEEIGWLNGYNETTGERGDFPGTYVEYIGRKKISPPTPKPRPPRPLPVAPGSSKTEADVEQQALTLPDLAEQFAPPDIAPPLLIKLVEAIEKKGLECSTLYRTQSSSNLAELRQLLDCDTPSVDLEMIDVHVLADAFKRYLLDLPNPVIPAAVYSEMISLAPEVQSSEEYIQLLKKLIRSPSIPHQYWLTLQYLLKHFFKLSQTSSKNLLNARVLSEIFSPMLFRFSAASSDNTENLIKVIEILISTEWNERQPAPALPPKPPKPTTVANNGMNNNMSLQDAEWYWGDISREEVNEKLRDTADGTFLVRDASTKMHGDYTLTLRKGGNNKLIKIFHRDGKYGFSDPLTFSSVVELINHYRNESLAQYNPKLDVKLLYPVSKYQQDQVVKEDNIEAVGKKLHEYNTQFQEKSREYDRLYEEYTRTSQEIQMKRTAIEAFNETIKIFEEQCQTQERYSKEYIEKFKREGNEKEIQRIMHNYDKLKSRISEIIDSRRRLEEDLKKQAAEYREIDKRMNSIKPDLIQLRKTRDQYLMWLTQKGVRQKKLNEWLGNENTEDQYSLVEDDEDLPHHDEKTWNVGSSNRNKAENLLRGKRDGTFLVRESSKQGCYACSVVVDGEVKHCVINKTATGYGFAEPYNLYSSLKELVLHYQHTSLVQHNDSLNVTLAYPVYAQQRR
Procedure: as §1, §2, §3, §4, §5

Human mTOR = target: T1, Human mTOR (Homo sapiens, UniProt P42345); assay: mTOR kinase assay (DELFIA format, purified enzyme); settings: His6-S6K substrate, read-out: TOR Kinase IC50
T1 construct: FLAG
Procedure: mTOR Kinase Assay Methods
Human mTOR assays (See Toral-Barza, et al. Biochem Biophys. Res. Commun. 2005 Jun. 24; 332(1):304-10) with purified enzyme are performed in 96-well plates by DELFIA format as follows. Enzymes are first diluted in kinase assay buffer (10 mM HEPES (pH 7.4), 50 mM NaCl, 50 mM β-glycerophosphate, 10 mM MnCl2, 0.5 mM DTT, 0.25 mM microcystin LR, and […]). To each well, 12 μL of the diluted enzyme is mixed briefly with 0.5 μL test inhibitor or control vehicle dimethylsulfoxide (DMSO). The kinase reaction is initiated by adding 12.5 μL kinase assay buffer containing ATP and His6-S6K to give a final reaction volume of 25 μL containing 800 ng/mL FLAG-TOR, […] and […]. The reaction plate is incubated for 2 hours (linear at 1-6 hours) at room temperature with gentle shaking and then terminated by adding 25 μL Stop buffer (20 mM HEPES (pH 7.4), 20 mM EDTA, 20 mM EGTA). The DELFIA detection of the phosphorylated (Thr-389) His6-S6K is performed at room temperature using a monoclonal anti-P(T389)-p70S6K antibody (1A5, Cell Signaling) labeled with Europium-N1-ITC (Eu) (10.4 Eu per antibody, PerkinElmer). The DELFIA Assay buffer and Enhancement solution can be purchased from PerkinElmer. 45 μL of the terminated kinase reaction mixture is transferred to a MaxiSorp plate (Nunc) containing 55 μL PBS. The His6-S6K is allowed to attach for 2 hours after which the wells are aspirated and washed once with PBS. 100 μL of DELFIA Assay buffer with 40 ng/mL Eu-P(T389)-S6K antibody is added. The antibody binding is continued for 1 hour with gentle agitation. The wells are then aspirated and washed 4 times with PBS containing 0.05% Tween-20 (PBST). 100 μL of DELFIA Enhancement solution is added to each well and the plates are read in a PerkinElmer Victor model plate reader. Data obtained is used to calculate enzymatic activity and enzyme inhibition by potential inhibitors.

Chain of PI3 Kinase γ (P48736 whole entry): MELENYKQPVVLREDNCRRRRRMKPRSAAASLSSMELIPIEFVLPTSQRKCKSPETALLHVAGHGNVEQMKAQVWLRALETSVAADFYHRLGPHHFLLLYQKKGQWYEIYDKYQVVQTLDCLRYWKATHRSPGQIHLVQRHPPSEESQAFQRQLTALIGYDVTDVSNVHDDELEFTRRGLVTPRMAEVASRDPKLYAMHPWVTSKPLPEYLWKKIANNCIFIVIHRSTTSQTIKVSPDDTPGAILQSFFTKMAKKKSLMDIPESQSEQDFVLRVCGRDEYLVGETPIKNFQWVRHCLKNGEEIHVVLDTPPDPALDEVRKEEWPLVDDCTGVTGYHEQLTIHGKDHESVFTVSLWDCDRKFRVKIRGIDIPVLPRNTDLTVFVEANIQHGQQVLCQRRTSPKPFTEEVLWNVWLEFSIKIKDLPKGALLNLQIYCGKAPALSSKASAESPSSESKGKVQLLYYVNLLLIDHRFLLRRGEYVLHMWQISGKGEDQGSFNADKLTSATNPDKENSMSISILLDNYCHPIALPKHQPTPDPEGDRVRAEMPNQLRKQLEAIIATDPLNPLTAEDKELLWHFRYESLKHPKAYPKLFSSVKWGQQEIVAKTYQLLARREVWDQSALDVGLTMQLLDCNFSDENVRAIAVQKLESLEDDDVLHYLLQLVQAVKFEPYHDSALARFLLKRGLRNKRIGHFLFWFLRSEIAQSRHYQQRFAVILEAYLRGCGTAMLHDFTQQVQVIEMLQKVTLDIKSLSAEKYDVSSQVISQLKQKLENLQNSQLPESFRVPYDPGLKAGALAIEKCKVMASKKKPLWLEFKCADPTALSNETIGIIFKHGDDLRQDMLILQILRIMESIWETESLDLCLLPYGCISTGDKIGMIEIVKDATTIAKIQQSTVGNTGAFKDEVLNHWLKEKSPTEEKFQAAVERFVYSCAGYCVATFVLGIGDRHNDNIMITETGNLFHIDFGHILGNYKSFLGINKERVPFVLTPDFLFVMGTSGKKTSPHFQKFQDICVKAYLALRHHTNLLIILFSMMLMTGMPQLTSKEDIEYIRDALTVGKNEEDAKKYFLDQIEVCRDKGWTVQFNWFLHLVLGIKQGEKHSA

Row | SMILES | IC50 (PI3 Kinase γ) | IC50 (PI3 Kinase α) | IC50 (Human mTOR)
1 | Oc1cncc(-c2nc(C3=CCOCC3)c3ncn(C4CCN(Cc5cccnc5)CC4)c3n2)c1 [Compound 29, 5-{6-(3,6-dihydro-2H-pyran-4-yl)-9-[1-(pyridin-3-ylmethyl)piperidin-4-yl]-9H-purin-2-yl}pyridin-3-ol] | 2.49 µM | 0.525 µM | 2.4 µM
2 | COc1ccc(CN2CCC(n3cnc4c(C5=CCOCC5)nc(-c5cncc(O)c5)nc43)CC2)cn1 [Compound 32, 5-[6-(3,6-dihydro-2H-pyran-4-yl)-9-{1-[(6-methoxypyridin-3-yl)methyl]piperidin-4-yl}-9H-purin-2-yl]pyridin-3-ol] | 2.53 µM | 0.858 µM | 1.7 µM
3 | Oc1cncc(-c2nc(C3=CCOCC3)c3ncn(C4CCN(Cc5c[nH]c6ccc(F)cc56)CC4)c3n2)c1 [Compound 33, 5-[6-(3,6-dihydro-2H-pyran-4-yl)-9-{1-[(5-fluoro-1H-indol-3-yl)methyl]piperidin-4-yl}-9H-purin-2-yl]pyridin-3-ol] | 0.385 µM | 0.265 µM | 12 µM
4 | O=c1[nH]c2nc(-c3cccc(CO)c3)nc(C3=CCOCC3)c2[nH]1 [Compound 39, 6-(3,6-dihydro-2H-pyran-4-yl)-2-[3-(hydroxymethyl)phenyl]-7,9-dihydro-8H-purin-8-one] | 0.819 µM | 0.524 µM | 1.3 µM
5 | Oc1cncc(-c2nc(C3=CCOCC3)c3ncn(C4CCNCC4)c3n2)c1 [Compound 44, 5-[6-(3,6-dihydro-2H-pyran-4-yl)-9-piperidin-4-yl-9H-purin-2-yl]pyridin-3-ol] | 2.63 µM | 0.628 µM | 4.8 µM
6 | OCc1cccc(-c2nc(C3=CCOCC3)c3ncn(CCN4CCCCC4)c3n2)c1 [Compound 45, {3-[6-(3,6-dihydro-2H-pyran-4-yl)-9-(2-piperidin-1-ylethyl)-9H-purin-2-yl]phenyl}methanol] | 9 µM | 1.35 µM | > 4 µM
7 | Oc1cccc(-c2nc(C3=CCOCC3)c3ncn(CCN4CCCCC4)c3n2)c1 [Compound 46, 3-[6-(3,6-dihydro-2H-pyran-4-yl)-9-(2-piperidin-1-ylethyl)-9H-purin-2-yl]phenol] | 15 µM | 1.35 µM | > 4 µM
8 | Oc1cccc(-c2nc(C3=CCOCC3)c3nnn(C4CCN(Cc5ccccc5)CC4)c3n2)c1 [Compound 47, 3-[3-(1-benzylpiperidin-4-yl)-7-(3,6-dihydro-2H-pyran-4-yl)-3H-[1,2,3]triazolo[4,5-d]pyrimidin-5-yl]phenol] | 1.5 µM | 0.998 µM | 0.23 µM
9 | Oc1cccc(-c2nc(C3=CCOCC3)c3nn[nH]c3n2)c1 [Compound 48, 3-[7-(3,6-dihydro-2H-pyran-4-yl)-3H-[1,2,3]triazolo[4,5-d]pyrimidin-5-yl]phenol] | 0.257 µM | 0.093 µM | 0.032 µM
10 | OCc1cccc(-c2nc(C3=CCOCC3)c3nn[nH]c3n2)c1 [Compound 49, {3-[7-(3,6-dihydro-2H-pyran-4-yl)-3H-[1,2,3]triazolo[4,5-d]pyrimidin-5-yl]phenyl}methanol] | 1.04 µM | 0.39 µM | 0.34 µM
11 | Oc1cncc(-c2nc(C3=CCOCC3)c3nn[nH]c3n2)c1 [Compound 50, 5-[7-(3,6-dihydro-2H-pyran-4-yl)-3H-[1,2,3]triazolo[4,5-d]pyrimidin-5-yl]pyridin-3-ol] | 0.1 µM | 0.078 µM | 0.36 µM

Now from value to molecule:

Row | IC50 (PI3 Kinase γ) | IC50 (PI3 Kinase α) | IC50 (Human mTOR) | SMILES
12 | 2.47 µM | 0.275 µM | 2 µM | Oc1cncc(-c2nc(C3=CCOCC3)c3ncn(C4CCN(Cc5ccc(Br)nc5)CC4)c3n2)c1 [Compound 30, 5-[9-{1-[(6-bromopyridin-3-yl)methyl]piperidin-4-yl}-6-(3,6-dihydro-2H-pyran-4-yl)-9H-purin-2-yl]pyridin-3-ol]
13 | 2.99 µM | 0.619 µM | 1.6 µM | Oc1cncc(-c2nc(C3=CCOCC3)c3ncn(C4CCN(Cc5ccccn5)CC4)c3n2)c1 [Compound 31, 5-{6-(3,6-dihydro-2H-pyran-4-yl)-9-[1-(pyridin-2-ylmethyl)piperidin-4-yl]-9H-purin-2-yl}pyridin-3-ol]
14 | 1.5 µM | 0.526 µM | 13 µM | Nc1ncccc1CN1CCC(n2cnc3c(C4=CCOCC4)nc(-c4cncc(O)c4)nc32)CC1 [Compound 34, 5-[9-{1-[(2-aminopyridin-3-yl)methyl]piperidin-4-yl}-6-(3,6-dihydro-2H-pyran-4-yl)-9H-purin-2-yl]pyridin-3-ol]
15 | 2.48 µM | 0.506 µM | 2.8 µM | COc1ncccc1CN1CCC(n2cnc3c(C4=CCOCC4)nc(-c4cncc(O)c4)nc32)CC1 [Compound 36, 5-[6-(3,6-dihydro-2H-pyran-4-yl)-9-{1-[(2-methoxypyridin-3-yl)methyl]piperidin-4-yl}-9H-purin-2-yl]pyridin-3-ol]
16 | 0.719 µM | 0.437 µM | 1.6 µM | Oc1cncc(-c2nc(C3=CCOCC3)c3ncn(C4CCN(Cc5ccc(Cl)nc5)CC4)c3n2)c1 [Compound 37, 5-[9-{1-[(6-chloropyridin-3-yl)methyl]piperidin-4-yl}-6-(3,6-dihydro-2H-pyran-4-yl)-9H-purin-2-yl]pyridin-3-ol]
17 | 0.543 µM | 0.152 µM | 0.19 µM | O=c1[nH]c2nc(-c3cccc(O)c3)nc(C3=CCOCC3)c2[nH]1 [Compound 38, 6-(3,6-dihydro-2H-pyran-4-yl)-2-(3-hydroxyphenyl)-7,9-dihydro-8H-purin-8-one]
18 | 3.16 µM | 0.54 µM | 1.4 µM | Oc1cccc(-c2nc(C3=CCOCC3)c3ncn(C4CCNCC4)c3n2)c1 [Compound 40, 3-[6-(3,6-dihydro-2H-pyran-4-yl)-9-piperidin-4-yl-9H-purin-2-yl]phenol]
19 | 3.11 µM | 0.543 µM | 0.13 µM | CNC(=O)Nc1ccc(-c2nc(C3=CCOCC3)c3ncn(C4CCN(Cc5ccc[nH]5)CC4)c3n2)cc1 [Compound 41, 1-(4-{6-(3,6-dihydro-2H-pyran-4-yl)-9-[1-(1H-pyrrol-2-ylmethyl)piperidin-4-yl]-9H-purin-2-yl}phenyl)-3-methylurea]
20 | 2.06 µM | 0.574 µM | > 4 µM | OCc1cccc(-c2nc(C3=CCOCC3)c3ncn(C4CCNCC4)c3n2)c1 [Compound 43, {3-[6-(3,6-dihydro-2H-pyran-4-yl)-9-piperidin-4-yl-9H-purin-2-yl]phenyl}methanol]
